Reference: article PMC4714714 (Journal of medicinal chemistry, 2015)
Like-named read-outs stand apart in the source and are kept apart here.

Key:
[1] = system: KB human nasopharyngeal carcinoma cells (FRα/PCFT/RFC); experiment: Growth inhibition of KB human tumor cells; type: cell-based
[2] = system: SKOV3 human ovarian tumor xenografts; experiment: In vivo efficacy trial against SKOV3 xenografts in SCID mice; settings: folate-deficient diet; 4 28 mg/kg, 7 16 mg/kg i.v. Q4dx3
DHFR = biological target: T1, DHFR (Homo sapiens, UniProt P00374); experiment: Isolated enzyme assay DHFR; type: biochemical; settings: nucleoside protection and isolated enzyme assays (not shown)
T1 sequence (P00374 1-187): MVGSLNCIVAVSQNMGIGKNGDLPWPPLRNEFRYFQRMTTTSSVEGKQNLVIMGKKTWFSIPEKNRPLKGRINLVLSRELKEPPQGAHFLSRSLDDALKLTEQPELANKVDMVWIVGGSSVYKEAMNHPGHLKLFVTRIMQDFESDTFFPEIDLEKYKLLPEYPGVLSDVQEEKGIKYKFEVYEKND

TS = TS (Homo sapiens, UniProt P04818); experiment: Isolated enzyme assay TS; type: biochemical; settings: nucleoside protection and isolated enzyme assays (not shown)
FRα = FRα (Homo sapiens, UniProt P15328); experiment: [3H]folic acid competition binding to FRα on RT16 CHO cells
FRβ = FRβ (Homo sapiens, UniProt P14207); experiment: [3H]folic acid competition binding to FRβ on D4 CHO cells
[3] = biological target: T2, recombinant human GARFTase (Homo sapiens, UniProt P22102); experiment: In vitro GARFTase inhibition assay; type: biochemical; settings: from Ki values
T2 sequence (P22102 810-1010 limits assumed): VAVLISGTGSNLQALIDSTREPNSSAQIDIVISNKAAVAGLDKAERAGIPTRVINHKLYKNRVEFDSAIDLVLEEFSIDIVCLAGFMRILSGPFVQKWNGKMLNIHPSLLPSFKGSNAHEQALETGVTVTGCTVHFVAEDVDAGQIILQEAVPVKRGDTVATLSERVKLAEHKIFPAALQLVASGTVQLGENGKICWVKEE

PCFT = biological target: T3, PCFT (Homo sapiens, UniProt Q96NT5); experiment: PCFT uptake and transport kinetics in R2/PCFT4 CHO cells; type: cell-based
T3 sequence (Q96NT5 1-459): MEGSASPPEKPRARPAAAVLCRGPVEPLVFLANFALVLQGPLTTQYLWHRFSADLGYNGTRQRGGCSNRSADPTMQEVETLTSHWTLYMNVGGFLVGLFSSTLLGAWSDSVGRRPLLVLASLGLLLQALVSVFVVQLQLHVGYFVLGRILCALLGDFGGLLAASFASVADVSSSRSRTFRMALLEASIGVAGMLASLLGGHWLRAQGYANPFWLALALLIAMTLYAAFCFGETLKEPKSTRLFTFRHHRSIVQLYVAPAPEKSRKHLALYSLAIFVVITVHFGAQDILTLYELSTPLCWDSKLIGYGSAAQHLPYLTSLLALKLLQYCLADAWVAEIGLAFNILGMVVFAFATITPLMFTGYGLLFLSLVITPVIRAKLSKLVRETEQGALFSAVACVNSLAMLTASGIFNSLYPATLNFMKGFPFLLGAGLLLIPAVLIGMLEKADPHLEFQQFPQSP

[4] = read-out: IC50 for inhibition of proliferation, KB

Chain of TS (P04818 whole entry): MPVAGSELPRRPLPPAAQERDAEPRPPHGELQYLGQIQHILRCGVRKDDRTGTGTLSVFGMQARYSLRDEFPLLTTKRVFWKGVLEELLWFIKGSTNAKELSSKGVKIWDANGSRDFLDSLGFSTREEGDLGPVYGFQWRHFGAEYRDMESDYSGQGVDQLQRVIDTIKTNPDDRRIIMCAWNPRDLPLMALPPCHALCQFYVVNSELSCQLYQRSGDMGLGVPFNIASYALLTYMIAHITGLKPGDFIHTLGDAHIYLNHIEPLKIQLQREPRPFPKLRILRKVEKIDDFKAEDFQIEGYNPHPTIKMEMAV
Chain of FRα (P15328 25-257): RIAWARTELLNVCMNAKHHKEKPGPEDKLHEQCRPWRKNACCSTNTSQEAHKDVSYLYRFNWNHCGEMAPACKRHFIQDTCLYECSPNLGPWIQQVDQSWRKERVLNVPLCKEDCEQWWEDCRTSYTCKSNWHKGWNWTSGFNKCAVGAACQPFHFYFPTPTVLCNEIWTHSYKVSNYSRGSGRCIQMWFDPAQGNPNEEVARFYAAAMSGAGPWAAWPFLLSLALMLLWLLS
Chain of FRβ (P14207 17-255): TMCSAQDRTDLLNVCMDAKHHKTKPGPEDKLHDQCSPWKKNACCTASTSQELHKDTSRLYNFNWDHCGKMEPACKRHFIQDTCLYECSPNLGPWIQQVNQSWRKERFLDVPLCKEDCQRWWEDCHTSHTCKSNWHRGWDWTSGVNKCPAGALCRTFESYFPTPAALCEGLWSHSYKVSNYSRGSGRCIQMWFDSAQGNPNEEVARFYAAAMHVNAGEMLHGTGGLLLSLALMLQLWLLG

| Compound | IC50 [1, 4] | tumor growth delay (T–C value) [2] | inhibition of DHFR (DHFR) | inhibition of TS (TS) | also measured |
| --- | --- | --- | --- | --- | --- |
| C#CCC(Cc1cnc2nc(N)nc(N)c2n1)c1ccc(C(=O)N[C@@H](CCC(=O)O)C(=O)O)cc1 (stereo partly drawn) [PDX, N-(4-{1-[(2,4-diaminopteridin-6-yl)methyl]but-3-yn-1-yl}-benzoyl)-L-glutamic acid] | 0.47 nM | – | – | – | IC50 ([1]; read-out: IC50 for inhibition of proliferation, KB (+FA)): 1.94 nM |
| Nc1nc2[nH]c(CCCc3ccc(C(=O)N[C@@H](CCC(=O)O)C(=O)O)s3)cc2c(=O)[nH]1 [compound 4] | 0.26 nM | 13 days | – | – | – |
| Nc1nc(N)c2c(CCCc3csc(C(=O)N[C@@H](CCC(=O)O)C(=O)O)c3)coc2n1 [compound 6, (S)-2-({4-[3-(2,4-Diamino-furo[2,3-d]pyrimidin-5-yl)-propyl]-thiophene-2 carbonyl}-amino)-pentanedioic Acid] | – | – | Neither 6 nor 8 were potent inhibitors of DHFR or TS | Neither 6 nor 8 were potent inhibitors of DHFR or TS | – |
| Nc1nc2[nH]c(CCCc3cc(C(=O)N[C@@H](CCC(=O)O)C(=O)O)cs3)cc2c(=O)[nH]1 [compound 7, (S)-2-({5-[3-(2-Amino-4-oxo-4,7-dihydro-3H-pyrrolo[2,3-d]-pyrimidin-6-yl)-propyl]-thiophene-3-carbonyl}-amino)-pentanedioic Acid] | – | 13 days | – | – | relative binding affinity to FRα, % of that for folic acid (FRα): approximately 60 % of that for folic acid; relative binding affinity to FRβ, % of the affinity for folic acid (FRβ): 35–40 % of the affinity for folic acid; fold more potent as inhibitor of human GARFTase than 4 [3]: ~ 7 fold; fold more potent as inhibitor of human GARFTase than PMX [3]: > 100 fold; PCFT uptake of [3H]7 in excess of that for [3H]PMX (PCFT; 0.5 μM, pH 5.5, 37 °C): ~ 40%; Vmax, PCFT transport, pH 5.5 (PCFT; pH 5.5): 24.62 (±6.60) pmol/mg/min; Vmax, PCFT transport, pH 6.8 (PCFT; pH 6.8): 3.0 (±0.3) pmol/mg/min |
| Nc1nc(N)c2c(CCCc3cc(C(=O)N[C@@H](CCC(=O)O)C(=O)O)cs3)coc2n1 [compound 8, (S)-2-({5-[3-(2,4-Diamino-furo[2,3-d]pyrimidin-5-yl)-propyl]-thiophene-3-carbonyl}-amino)-pentanedioic Acid] | – | – | Neither 6 nor 8 were potent inhibitors of DHFR or TS | Neither 6 nor 8 were potent inhibitors of DHFR or TS | – |
